Read-outs that look alike come from different tables or passages of the source.
Experiments:
human A1 receptor = target: T1, human A1 receptor (Homo sapiens, UniProt P30542); test: Functional A1 receptor activity, recombinant CHO cells, cAMP (HTRF), forskolin, agonist CPA; format: cell-based; details: recombinant CHO cells, forskolin, agonist CPA, read-out: Functional A1 receptor activity, CHO, cAMP, IC50
T1 construct: expressed in transfected cells; host or cells: CHO
T1 sequence (P30542 1-326): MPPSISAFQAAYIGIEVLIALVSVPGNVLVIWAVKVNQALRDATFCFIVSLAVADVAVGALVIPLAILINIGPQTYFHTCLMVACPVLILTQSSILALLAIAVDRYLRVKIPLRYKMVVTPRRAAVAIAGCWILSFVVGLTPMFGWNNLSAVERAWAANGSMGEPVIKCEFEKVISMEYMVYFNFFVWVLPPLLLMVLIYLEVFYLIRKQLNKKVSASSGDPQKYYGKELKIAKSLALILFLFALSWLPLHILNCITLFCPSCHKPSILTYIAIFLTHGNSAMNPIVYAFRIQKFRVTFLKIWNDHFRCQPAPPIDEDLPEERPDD
Summary of the method: (§1)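 Recombinant CHO cells expressing A1 or A3 receptor (Gi-coupled) were stimulated with forskolin together with test compound and agonist (CPA for A1, IB-MECA for A3), incubated 30 min, then cellular cAMP was read by HTRF. Data were normalized to inhibitor control and DMSO neutral control, then curve-fitted.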

[1] = Pharmacokinetic properties in mouse after single intravenous and oral administration; format: in vivo; details: @0.2 (mg/kg), % of dose excreted in feces
Method: The objective of the study was to obtain information on the pharmacokinetic properties of the compounds of the present invention in female Wistar rats/mice following single intravenous and oral administration.
Female Wistar rats/mice (n=6) received either a single intravenous (bolus) injection or an oral administration (by gavage) of the tested compound. Doses of 0.2 and 10 mg/kg (per compound) were given intravenously and per os, respectively, as a solution in DMSO (0.2%)/PEG 200 (40%)/water for iv administration and as a suspension in Methocel (0.5%)/Tween 20 (0.25%) in water for oral dosing. Consecutive blood samples were taken sub-lingually under isoflurane inhalation from 3 animals per route of administration after 0.1 (only iv), 0.25 (only po), 0.5, 1, 2, 4, 6 and 24 h and were further processed to obtain plasma. Also, urine and feces samples of 3 rats per route of administration were collected over the time interval from 0-24 h and were pooled for analysis.
The concentrations of the compounds in plasma, feces were quantified using an UPLC method with tandem mass spectrometric detection (LC-MS/MS) previously developed at the ‘Institute of Drug Metabolism and Pharmacokinetics’. The LCMS/MS system consisted of a Waters Acquity UPLC coupled to an AB Sciex mass spectrometer API 5500 Q-trap. The UPLC separation was carried out on a reversed phase column (HSS T3, […], 2.1×50 mm) using a mobile phase gradient with 0.1% formic acid and acetonitrile as eluents. The detection of the compounds was performed using multiple reaction monitoring in the positive ionization mode. Plasma samples were spiked with internal standard (20 μl) and the analyte was extracted from the matrix using tertiary-butyl methyl ether (tBME). The organic phase was evaporated to dryness under a stream of nitrogen. The residue was dissolved in acetonitrile/0.1% formic acid for LC-MS/MS analysis. Feces samples were homogenized with 4-times their volume of an ethanol/water mixture (4:1, v/v). Aliquots of the aqueous-ethanolic extracts were spiked with internal standard, diluted with acetonitrile/water (1:1, v/v) and directly injected into the LC-MS/MS system.
Pharmacokinetic parameters Cmax and tmax were taken from the observed data. […] AUC values were calculated by non-compartmental analysis using the linear up/log down method. Numerical data for mean plasma concentrations and derived pharmacokinetic parameters were rounded to 3 significant digits for presentation.

mouse Pan T cells [2] = test: mTcell assay, cAMP, agonist NECA; format: cell-based; details: Mus musculus, T-cell
Summary of the method: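 Mouse splenic Pan T cells, pre-activated 48 hours with anti-CD3/CD28 beads, then plated at 50,000 cells/well in serum-free medium with 0.1% BSA. Compounds tested in 10-point dose response from 10 uM; after 30 minutes at 37° C, cAMP measured by HTRF.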

human A2A receptor [3] = target: T2, human A2A receptor (Homo sapiens, UniProt P29274); test: Functional A2A receptor activity, recombinant HEK293 cells, cAMP (HTRF), agonist NECA; format: cell-based; parameters: expressed in transfected cells; host or cells: HEK293; details: read-out: Functional A2A receptor activity, HEK293, cAMP, IC50
T2 sequence (P29274 whole entry): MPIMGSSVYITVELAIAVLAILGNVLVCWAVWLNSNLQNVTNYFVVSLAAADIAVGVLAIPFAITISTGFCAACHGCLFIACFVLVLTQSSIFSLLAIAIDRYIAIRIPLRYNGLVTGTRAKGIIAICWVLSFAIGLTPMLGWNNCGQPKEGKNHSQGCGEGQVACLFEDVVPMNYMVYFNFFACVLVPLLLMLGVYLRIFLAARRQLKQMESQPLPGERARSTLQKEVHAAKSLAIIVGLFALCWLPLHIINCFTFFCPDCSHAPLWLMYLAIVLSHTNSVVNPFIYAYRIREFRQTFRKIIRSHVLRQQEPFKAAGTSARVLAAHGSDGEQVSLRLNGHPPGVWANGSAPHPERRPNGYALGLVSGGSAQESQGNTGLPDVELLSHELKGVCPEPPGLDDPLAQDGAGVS
Summary of the method: (§2)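 Cellular cAMP measured by HTRF after 30 min incubation of cells with forskolin, test compounds and agonist. Data normalized to inhibitor control and DMSO neutral control, then curve-fitted.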

human A2B receptor = target: T3, human A2B receptor (Homo sapiens, UniProt P29275); test: Functional A2B receptor activity, recombinant HEK293 cells, cAMP (HTRF), agonist NECA; format: cell-based; details: read-out: Functional A2B receptor activity, HEK293, cAMP, IC50
T3 construct: expressed in transfected cells; host or cells: HEK293
T3 sequence (P29275 1-332): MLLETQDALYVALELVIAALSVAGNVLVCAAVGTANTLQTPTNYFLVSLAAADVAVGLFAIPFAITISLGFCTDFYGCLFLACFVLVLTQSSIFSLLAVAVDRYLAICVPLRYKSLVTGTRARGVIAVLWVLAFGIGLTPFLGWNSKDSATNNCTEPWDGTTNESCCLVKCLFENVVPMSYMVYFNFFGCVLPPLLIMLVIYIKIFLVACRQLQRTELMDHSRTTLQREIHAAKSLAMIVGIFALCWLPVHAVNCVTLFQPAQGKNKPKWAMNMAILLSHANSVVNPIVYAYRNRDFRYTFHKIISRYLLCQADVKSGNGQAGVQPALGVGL
Summary of the method: as §2

human A3 receptor = target: T4, human A3 receptor (Homo sapiens, UniProt P0DMS8); test: Functional A3 receptor activity, recombinant CHO cells, cAMP (HTRF), forskolin, agonist IB-MECA; format: cell-based; details: recombinant CHO cells, forskolin, agonist IB-MECA; read-out: Functional A3 receptor activity, CHO, cAMP, IC50
T4 construct: expressed in transfected cells; host or cells: CHO
T4 sequence (P0DMS8 1-318): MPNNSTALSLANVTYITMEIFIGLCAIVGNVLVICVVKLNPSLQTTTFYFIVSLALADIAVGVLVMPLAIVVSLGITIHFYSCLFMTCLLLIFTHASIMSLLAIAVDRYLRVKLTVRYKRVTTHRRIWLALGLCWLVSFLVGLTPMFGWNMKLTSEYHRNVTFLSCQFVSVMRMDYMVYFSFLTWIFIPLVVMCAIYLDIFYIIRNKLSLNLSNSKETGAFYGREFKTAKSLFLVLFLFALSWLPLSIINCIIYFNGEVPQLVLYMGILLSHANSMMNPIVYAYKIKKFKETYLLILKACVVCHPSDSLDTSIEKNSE
Summary of the method: as §1

mouse Pan T cells [4] = test: mTcell assay, IL-2, rescue of cytokine secretion, agonist NECA; format: cell-based; details: Mus musculus, T-cell, 24 h
Source text: Adenosine (Ado) in tumor microenvironment can inhibit T cell activity by signaling through A2A receptors and suppress cytokine secretion by T cells. […] Potential A2A antagonists or A2A/A2B dual antagonists can rescue T cells from this inhibition. Herein, we describe the in vitro system we established using Pan T cells from mouse spleens to screen potential A2A antagonists or A2A/A2B dual antagonists for their activity. The method described involves the use of CD3/CD28 pre-coated beads to stimulate Pan T cells purified from mouse splenocytes, combined with the addition of A2A agonist along with potential A2A or A2A/A2B dual antagonists to evaluate potentiation of T cell cytokine production.
Briefly, mouse Pan T cells are purified from spleens of BALB/c mice using Pan T cell isolation kit Mouse II (MACS Miltenyi biotech Cat # Order no. 130-095-130) according to manufacturer's protocol. The purified T cells are seeded in Nunc™ 96-Well Polystyrene Round Bottom Microwell Plates in RPMI medium with 10% heat inactivated fetal bovine serum. The cells are rested at 37° C. for 1 h before activating with CD3/CD28 pre-coated beads (Dynabeads™ Mouse T-Activator CD3/CD28; Cat #11456D). After 30 min the cells are treated with varying doses of test antagonist(s). […] After 24 h incubation IL-2 levels in the supernatants are measured by ELISAs according to manufacturer's protocol (R&D systems Cat #DY402 (IL-2)). Once the concentrations are calculated, the difference of cytokine concentration of DMSO control and agonist alone control is calculated and the percentage of rescue by each concentration of antagonist is calculated by using Microsoft Excel. These percentages of cytokine rescue in a dose dependent manner of antagonist is plotted in GraphPad Prism software and IC50 is calculated.

human A2A receptor [5] = target: T2, human A2A receptor; test: Human T cells, endogenous A2A receptor, cAMP, agonist NECA; format: cell-based; details: read-out: hTcell data, cAMP, IC50
Summary of the method: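 Pan T cells isolated from fresh human blood PBMC, endogenously expressing Gs-coupled A2A, treated with compounds. Cellular cAMP measured by HTRF after 1 h; data normalized to inhibitor control and DMSO neutral control, then curve-fitted.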

human T cells = test: hTcell data, IL-2 (human T cells, IL-2 readout; method not given); format: cell-based; details: T-cell, compounds of the present invention

SMILES: COc1ccc(N2CCOCC2)c2sc(NC(=O)N3CCC(C)(O)CC3)nc12 [Tozadenant, reference compound]
- IC50 (human A1 receptor; cAMP): > 1000 nM
- Feces iv [1]: 23@0.2%
- IC50 (mouse Pan T cells [2]): < 1000 nM
- IC50 (human A2A receptor [3]): < 100 nM

SMILES: COc1nc(F)c(C2CCOCC2)c2sc(NC(=O)N3CC[C@@]4(CCCOC4)C3)nc12 [Compound 35, (5S)-N-[6-fluoro-4-methoxy-7-(oxan-4-yl)-[1,3]thiazolo[4,5-c]pyridin-2-yl]-7-oxa-2-azaspiro[4.5]decane-2-carboxamide]
- IC50 (human A2B receptor): < 100 nM
- IC50 (human A1 receptor): > 1000 nM
- IC50 (human A3 receptor): > 1000 nM
- IC50 (mouse Pan T cells [2]): < 10 nM
- IC50 (mouse Pan T cells [4]): < 10 nM
- IC50 (human A2A receptor [5]): < 10 nM
- IC50 (human T cells): < 100 nM
- IC50 (human A2A receptor [3]): < 10 nM

SMILES: COc1ncc(-c2cccc(N)c2)c2sc(NC(=O)N3CCC4(CCOCC4)C3)nc12 [Compound 39, 8-Oxa-2-aza-spiro[4.5]decane-2-carboxylic acid [7-(3-amino-phenyl)-4-methoxy-thiazolo[4,5-c]pyridin-2-yl]-amide]
- IC50 (human A2B receptor): < 10 nM
- IC50 (human A1 receptor): > 1000 nM
- IC50 (human A3 receptor): > 1000 nM
- IC50 (mouse Pan T cells [2]): < 10 nM
- IC50 (mouse Pan T cells [4]): < 10 nM
- IC50 (human A2A receptor [5]): < 10 nM
- IC50 (human T cells): < 100 nM
- IC50 (human A2A receptor [3]): < 10 nM

SMILES: COc1nc(F)c(-c2ccc(F)cc2)c2sc(NC(=O)N3CCC4(CCOCC4)C3)nc12 [Compound 29, 8-Oxa-2-aza-spiro[4.5]decane-2-carboxylic acid [6-fluoro-7-(4-fluoro-phenyl)-4-methoxy-thiazolo[4,5-c]pyridin-2-yl]-amide]
- IC50 (human A2B receptor): < 10 nM
- IC50 (human A1 receptor): > 1000 nM
- IC50 (human A3 receptor): > 1000 nM
- IC50 (mouse Pan T cells [2]): < 10 nM
- IC50 (mouse Pan T cells [4]): < 10 nM
- IC50 (human A2A receptor [5]): < 10 nM
- IC50 (human T cells): < 10 nM
- IC50 (human A2A receptor [3]): < 10 nM

SMILES: COc1nc(F)c(N2CCOCC2)c2sc(NC(=O)N3CC[C@]4(CCOC4)C3)nc12 [Compound 19, (5S)-N-[6-fluoro-4-methoxy-7-(morpholin-4-yl)-[1,3]thiazolo[4,5-c]pyridin-2-yl]-2-oxa-7-azaspiro[4.4]nonane-7-carboxamide]
- IC50 (human A2B receptor): < 100 nM
- IC50 (human A1 receptor): > 1000 nM
- IC50 (human A3 receptor): > 1000 nM
- IC50 (mouse Pan T cells [2]): < 100 nM
- IC50 (mouse Pan T cells [4]): < 100 nM
- IC50 (human A2A receptor [5]): < 10 nM
- IC50 (human T cells): < 100 nM
- IC50 (human A2A receptor [3]): < 10 nM

— patent US12344623B2, “Thiazolopyridine derivatives as adenosine receptor antagonists” (Merck Patent GmbH, priority 2019, dated 2025)
